From ChEMBL document CHEMBL6103624, “Design, Synthesis, and Biological Evaluation of Marchantin C-NO Donor Hybrids for Overcoming Pgp-Mediated Drug Resistance by Targeting Lysosome” (J Med Chem, 2025)
Activity calls are given as the source filed them. No cut-off for these calls is given here.

Tests used:
[1] = Selectivity index, ratio of IC50 for human MCF-10A to IC50 for human MDA-MB-231 cells; format: toxicity; details: MCF-10A cells and MDA-MB-231 cells, read-out: Ratio IC50
MCF7 [2] = assay: Antiproliferative activity against human MCF7 cells assessed as inhibition of cell growth incubated for 48 hrs by MTT assay; format: functional, cell-based; details: MCF7, 48 h
NCI/ADR-RES [3] = assay: Antiproliferative activity against human MCF7ADR cells assessed as inhibition of cell growth incubated for 48 hrs by MTT assay; format: functional, cell-based
A549 = assay: Antiproliferative activity against human A549 cells assessed as inhibition of cell growth incubated for 48 hrs by MTT assay; format: functional, cell-based; details: A549, 48 h
HepG2 = assay: Antiproliferative activity against human HepG2 cells assessed as inhibition of cell growth incubated for 48 hrs by MTT assay; format: functional, cell-based; details: HepG2, 48 h
PC-3 = assay: Antiproliferative activity against human PC-3 cells assessed as inhibition of cell growth incubated for 48 hrs by MTT assay; format: functional, cell-based; details: PC-3, 48 h
MCF7 [4] = assay: Induction of NO release in human MCF7 cells at 100 uM measured for 5 hrs by Griess reagent assay; format: functional, cell-based
NCI/ADR-RES [5] = assay: Induction of NO release in human MCF7ADR cells at 100 uM measured for 5 hrs by Griess reagent assay; format: functional, cell-based
NCI/ADR-RES [6] = assay: Induction of NO release in human MCF7ADR cells at 100 uM by Griess reagent assay; format: functional, cell-based; details: time <= 10.0 hrs
[7] = Selectivity index, ratio of IC50 for antiproliferative activity against human MCF7 cells assessed as inhibition of cell growth to IC50 for antiproliferative activity against human MCF7ADR cells assessed as inhibition of cell growth; format: functional

Row | IC50 (MCF7 [2]) | IC50 (A549) | IC50 (HepG2) | IC50 (PC-3) | SMILES | selectivity ratio [1] | IC50 (NCI/ADR-RES [3]) | Activity (MCF7 [4]) | Activity (NCI/ADR-RES [5]) | Activity (NCI/ADR-RES [6]) | Ratio IC50 [7]
1 | – | – | – | – | CCN(CC)c1ccc2cc(C(=O)OCCCCCOc3cc4ccc(=O)oc4cc3OCCCCCCOc3no[n+]([O-])c3S(=O)(=O)c3ccccc3)c(=O)oc2c1 | > 6250 | – | – | – | – | –
2 | > 20 µM | > 40 µM | > 20 µM | 11.7 µM | O=[N+]([O-])OCC(COc1cccc2c1Oc1cccc(c1)CCc1ccc(O)c(c1)Oc1ccc(cc1)CC2)O[N+](=O)[O-] (stereo unspecified) | – | > 20 µM | inactive | inactive | Time-dependent-effect | –
3 | > 20 µM | > 40 µM | > 20 µM | > 20 µM | O=[N+]([O-])c1ccc(O/N=[N+](\[O-])N2CCN(Cc3ccc4c(c3O)Oc3cccc(c3)CCc3ccc(O)c(c3)Oc3ccc(cc3)CC4)CC2)c([N+](=O)[O-])c1 | – | > 3 µM | – | – | Time-dependent-effect | <7
